From patent US7179479B1, “Mosquito repellent isolated from Foeniculum vulgare fruit” (Naturobiotech Co., Ltd., priority 2000, dated 2007)
Values joined by “and” are separate entries in the source; they are usually repeats but may differ in a detail not shown here. Equal entries are not always repeated. Where two headings read alike, the source gives them in different places.

Columns and labels:
Aedes aegypti [1] = assay: Skin test of mosquito repellency (bites on treated skin); type: in vivo
Method: In order to exactly confirm mosquito repellent activity, the compounds containing repellent activity were further examined by a skin test directly against skin. The cage was covered with a 35×35×35 cm mail net structure. Tests were conducted against nulliparous females 7–10 days old. Both compounds, in 100 μl of ethanol, were applied to a rubber glove surface with a 50 mm diameter hole punched on the hand. After drying in the air for 1 minute, skin was exposed for 5 minutes in a cage containing 60 mosquitoes. Repellent activity was measured by the number of mosquitoes biting the skin. The control treated only with 95% ethanol was also exposed to mosquitoes in the same manner. The degree of repellency was expressed in terms of percent repellency calculated according to the following Equation 2. [formula]

[2] = skin treated with 300 ug/cm^2 DEET, cited from earlier work
Aedes aegypti [3] = assay: Patch test of mosquito repellency (landings on treated gauze); type: in vivo; conditions: for Mosquito repellency of chromatography fractions (active / inert): patch test of Test 1, fractions of the hexane portion
Text: Aedes aegypti were used in the tests of mosquito repellency in the experiments of the present invention. They were provided from the National Institute of Health in Korea and were selected from indoor breeding insects that were not exposed to insecticides or other drugs. Larvae were reared in 30×35×10 cm cages. […] The pupae were transferred to a paper-cup using a spoide and then the paper-cup was moved to a cage being a structure (35×35×35 cm) made from wire. […] For patch test, 35×35×35 cm screen wire cage were used. Tests were conducted on nulliparous females 7-10 days old. The methanol extract and 4 types of portions prepared in the Example 1 and 100 μl of ethanol were applied to a piece of gauze (50 mm-diameter). After drying in the air for 2 minutes, the gauze was put on a rubber glove with a 50 mm-diameter hole punched in it and it was exposed in a cage (35×35×35 cm containing 60 mosquitoes). Because the gauze on the rubber glove was 5 mm away from the skin, mosquitoes would probe through the gauze in an attempt to feed but could not reach the back of the hand. Repellent activity was measured by the number of mosquitoes landing on the gauze for 5 minutes. An untreated gauze (95% ethanol only) was also exposed to mosquitoes in the same manner and considered as a control. The degree of repellency was expressed in terms of percent repellency calculated according to the following equation. [formula] Also, in order to identify mosquito repelling activity, it was compared with synthetic repellent DEET by recording the number of landings.

rat [4] = conditions: epidermal; cited from earlier work
rat [5] = conditions: oral administration; cited from earlier work
[6] = patch test, dose 0.004 mg/cm^2 (so in the source)

Row | Compound | Repellency (average ± standard deviation, %) (Aedes aegypti [1]; dose 0.04 mg/cm^2) | Repellency (average ± standard deviation, %) (Aedes aegypti [1]; dose 0.1 mg/cm^2) | Repellency (average ± standard deviation, %) (Aedes aegypti [1]; dose 0.2 mg/cm^2) | Repellency (average ± standard deviation, %) (Aedes aegypti [1]; dose 0.4 mg/cm^2) | skin penetration ratio ([2]; after 1 hour) | skin penetration ratio ([2]; after 12 hours) | Repellency (average ± standard deviation, %) (Aedes aegypti [3]; [6]) | Repellency (average ± standard deviation, %) (Aedes aegypti [3]; patch test, dose 0.005 mg/cm^2) | Repellency (average ± standard deviation, %) (Aedes aegypti [3]; patch test, dose 0.01 mg/cm^2) | Repellency (average ± standard deviation, %) (Aedes aegypti [3]; patch test, dose 0.02 mg/cm^2) | Repellency (%) (Aedes aegypti [3]; patch test, dose 0.1 mg/cm^2, A. aegypti females, 5 min exposure) | Mosquito repellency of chromatography fractions (active / inert) (Aedes aegypti [3]) | Repellency (average ± standard deviation, %) (Aedes aegypti [1]; dose 0.4 mg/cm^2, listed as fenchone) | Repellency (average ± standard deviation, %) (Aedes aegypti [3]; patch test, dose 0.005 mg/cm^2, listed as fenchone) | Repellency (average ± standard deviation, %) (Aedes aegypti [3]; patch test, dose 0.01 mg/cm^2, listed as fenchone) | LD50 (rat [4]) | LD50 (rat [5])
1 | CCN(CC)C(=O)c1cccc(C)c1 [DEET, N,N-diethyl-m-toluamide, reference compound] | 98.4 ± 0.5b % | 100a % | 100a % | 100a % | 30% | 36% | 100a % | 84.6% and 84.6 ± 1.3c % | 96.4 ± 0.5b % | 100a % | > 80% | – | – | – | – | – | –
2 | CCCCCCCC/C=C/CCCCCCCC(=O)O [E-9-octadecenoic acid] | – | – | 52.3 ± 0.9% | 80.4% and 80.4 ± 0.2% | – | – | 100a % | 73.4% and 73.4 ± 2.3c % | – | 98.6 ± 0.9a % | – | potent active principles | – | – | – | – | –
3 | CC1(C)C(=O)[C@@]2(C)CC[C@@H]1C2 [Fenchone, (+)-fenchone] | 76.2 ± 0.2c % | 91.7 ± 0.9b % | 100a % | 100a % | – | – | 100a % | 82.1 ± 0.7c % | 93.9 ± 0.6b % | 100a % | – | – | perfect repellent activity | 82.1% | potent repellency comparable with that of DEET | – | –
4 | CC1CCC(C(C)(C)O)C(O)C1 (stereo not shown) [PMD, p-menthan-3,8-diol] | – | – | – | – | – | – | – | – | – | – | – | – | – | – | – | > 2,000 mg/kg | 2,408 mg/kg
5 | (+)-fenchone | – | – | – | – | – | – | – | – | – | – | – | potent active principles | – | – | – | – | –
